Laboratory results from US5214191A, “Oxidant sensitive and insensitive aromatic esters as inhibitors of human neutrophil elastase” (Cortech, Inc., priority 1990, dated 1993).
In brackets after ≈: the same amount, converted by molar mass. Where two headings read alike, the source gives them in different places.

How the values were obtained:
[1] = target: T1, human neutrophil elastase (HNE) (Homo sapiens, UniProt P08246); experiment: Potency (I50 determination) against human neutrophil elastase, N-methoxysuccinyl-ala-ala-pro-val-pNA substrate; assay type: biochemical; details: for potency relative to Compound A: in words, versus Compound A (pivaloyl group)
T1 sequence (P08246 30-267): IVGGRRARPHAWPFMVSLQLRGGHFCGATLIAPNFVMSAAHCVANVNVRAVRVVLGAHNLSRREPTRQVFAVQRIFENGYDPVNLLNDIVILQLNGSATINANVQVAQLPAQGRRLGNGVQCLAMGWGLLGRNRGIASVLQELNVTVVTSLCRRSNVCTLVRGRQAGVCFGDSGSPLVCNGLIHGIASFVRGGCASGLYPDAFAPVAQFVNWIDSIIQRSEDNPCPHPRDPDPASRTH
Experimental: Potency (I50 Determination)
A) 0.075M sodium phosphate, 20% dimethyl sulfoxide (DMSO), pH 7.7=substrateand inhibitor buffer
B) 0.075M sodium phosphate no DMSO, pH 7.7=inhibitor buffer
C) 10 mM human neutrophil elastase (HNE) substrate =N-methoxysuccinyl-ala-ala-pro-val-pNA in DMSO
D) 0.01M sodium acetate, 20% DMSO, pH 5.5=enzyme buffer (dilution)
E) 0.01M sodium acetate, pH 5.5=enzyme buffer (storage)
F) HNE (1 mg) dissolved in 1 mL of reagent E for storage at -20° C.
Make a 10 mM stock of the inhibitor in DMSO. Dilute an aliquot (10 μL) up to 1.0 mL in reagent A (100 μM). Serially dilute 100 μL of the 100 μM stock to 10.0, 1.0, 0.1, 0.01 μM in reagent A. Apply 100 μL of the diluted material to the wells of a 96-well plate. Dilute an aliquot of reagent F 1:150 in reagent D, apply 50 μL aliquots to the indicated wells and incubate for 7 minutes at room temperature.
The HNE substrate solution is made by taking 100 μL of reagent C into 500 μL of reagent A and 400 μL of reagent B. After the 7 minutes of incubation, the substrate (50 μL) is applied to each well. The HNE catalyzed reaction is then monitored spectrophotometrically at 405 nm using an ELISA plate reader machine (UVMAX, Molecular Devices) which processes the raw data with an on-board kinetics program. The enzyme activity is plotted against different inhibitor concentrations and the I50 value is determined by using a curve fitting software program. Once the "screening" I50 has been approximated, a more precise I50 value can be obtained by examination of inhibitor concentrations around this value.

[2] = PBS solubility; assay type: physicochemical; details: aqueous buffer
[3] = target: alpha-chymotrypsin (α-CH) (Bos taurus, UniProt P00766); experiment: Specificity determination, alpha-chymotrypsin, N-succinyl-ala-ala-pro-leu-pNA substrate; assay type: biochemical; details: ratio of I50's (α-CH/HNE)
Description: (§1) Representative compounds according to the invention have been compared with a compound (Compound A) typifying the compounds described in U.S. Pat. […] The comparisons were directed towards potency (represented by the I50 's for human neutrophil elastase (HNE), porcine pancreatic elastase (PPE) and alpha-chymotrypsin (α-CH)), specificity (represented by the ratios of the I50 's (PPE/HNE and α-CH/HNE)) and the ability to inhibit the digestion of extracellular matrix by activated intact human neutrophils (expressed as a fraction of control) of the compounds listed. The following results were obtained (TABLE IV): Specificity Determination Reagents: 2) α-Chymotrypsin (α-CH) 1 mg/mL in 0.01M sodium acetate, pH 5.5. An aliquot of this stock solution is diluted 1:85 in 0.01M sodium acetate, 20% DMSO, 10 mM CaCl2, pH 5.5, 0.005% triton X-100 detergent. 4) α-CH substrate: N-succinyl-[…] 20 mM stock in DMSO. Inhibitor, substrate buffer: 0.1M tris-HCl, 0.01M CaCl2, 0.005% triton X-100, 20% DMSO, pH 7.7.

[4] = target: porcine pancreatic elastase (PPE) (Sus scrofa, UniProt P00772); experiment: Specificity determination, porcine pancreatic elastase, N-succinyl-ala-ala-ala-pNA substrate; assay type: biochemical; details: ratio of I50's (PPE/HNE)
porcine pancreatic elastase (PPE), sequence (P00772 27-266): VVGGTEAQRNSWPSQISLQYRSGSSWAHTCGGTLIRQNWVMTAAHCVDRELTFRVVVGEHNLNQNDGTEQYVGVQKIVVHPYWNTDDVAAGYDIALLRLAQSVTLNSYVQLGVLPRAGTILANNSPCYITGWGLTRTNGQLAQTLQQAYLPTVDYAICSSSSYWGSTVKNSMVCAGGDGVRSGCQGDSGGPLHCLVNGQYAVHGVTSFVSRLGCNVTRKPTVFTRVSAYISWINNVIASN
Description: as §1, with “1) Porcine Pancreatic Elastase (PPE)” for “2) α-Chymotrypsin (α-CH)”, “1:20” for “1:85”, “5.5. 3) PPE” for “5.5, 0.005% triton X-100 detergent. 4) α-CH”

[5] = Table III, series with varied R4, read-out: I50
[6] = Table IV, human neutrophil elastase, read-out: HNE I50

| Structure (SMILES) | IC50 [1, 5] [nM] | solubility [2] [µg/mL] | α-Chymotrypsin (I50)/HNE(I50) [3] | PPE (I50)/HNE (I50) [4] | IC50 [1, 6] [nM] | potency relative to Compound A [1] |
| --- | --- | --- | --- | --- | --- | --- |
| CCC(C(=O)Oc1ccc(S(=O)(=O)CC(C)(C)C(=O)O)cc1)c1ccccc1 (stereo not drawn) [S(O2)CH2 C(CH3)2 CO2 H] | 141 | ≥ 2000 | – | – | – | – |
| CC(C)(C)C(=O)Oc1ccc(S(C)(=O)=O)cc1 [Compound A, reference compound] | – | – | 146.10 | 18.84 | 129 | – |
| CCC(C(=O)Oc1ccc(S(C)(=O)=O)cc1)c1ccccc1 (stereo not drawn) [S(O)2 CH3] | 100 | 10 (≈ 31.4 µM) | – | – | – | – |
| CCC(C(=O)Oc1ccc([S+](C)[O-])cc1)c1ccccc1 (stereo not drawn) [S(O)CH3] | 600 | 600 (≈ 1980 µM) | – | – | – | – |
| CCC(C(=O)Oc1ccc([S+]([O-])CC(C)(C)C(=O)O)cc1)c1ccccc1 (stereo not drawn) [S(O)CH2 C(CH3)2 CO2 H] | 357 | ≥ 2000 | – | – | – | – |
| CCC(C(=O)Oc1ccc(SC)cc1)c1ccccc1 (stereo not drawn) [SCH3] | 9000 | 10 (≈ 34.9 µM) | – | – | – | – |
| CCC(C(=O)Oc1ccc(S(C)(=O)=O)cc1)c1ccc2cc(OC)ccc2c1 (stereo not drawn) [Compound 384] | – | – | 131.8 | 29.1 | 55 | improve potency relative to a compound bearing a simple pivaloyl group |
| CCC(C(=O)Oc1ccc(S(C)(=O)=O)cc1)c1ccccc1 (stereo not drawn) [Compound 3] | – | – | 176.0 | 129.6 | 25 | improve potency relative to a compound bearing a simple pivaloyl group |
| CCC(C(=O)Oc1ccc(SCC(C)(C)C(=O)O)cc1)c1ccccc1 (stereo not drawn) [SCH2 C(CH3)2 CO2 H] | 892 | ≥ 2000 | – | – | – | – |
| CCC(C(=O)Oc1ccc(S(C)(=O)=O)cc1)c1ccc(OC)cc1 (stereo not drawn) [Compound 37, 4-Methylsulfonylphenyl 2-(4'-Methoxyphenyl)butyrate] | – | – | 106.2 | 38.6 | 31 | improve potency relative to a compound bearing a simple pivaloyl group |
